Experimental data as given in patent publication US6995143B2, “Macrolides with antibacterial activity” (Basilea Pharmaceutica AG, priority 2002, dated 2006).
Values after ≈ are worked out from the molar mass of the structure shown.

Legend:
Assay type in all cases: cell-based
[1] = test system: Haemophilus influenzae QK50; assay: MIC, standard agar dilution method using HTM medium; settings: for MIC: read-out: minimum inhibitory concentration (MIC), Strain L
Description: (§1) The biological activities of compounds of the present invention against Haemophilus influenzae have been determined by standard agar dilution method using HTM medium (National Committee for Clinical Laboratory Standards. 2000. Methods for Dilution Antimicrobial Susceptibility Tests for Bacteria that Grow Aerobically, 5th edition. Approved standard M7-A5. National Committee for Clinical Laboratory Standards, Wayne, Pa.).

[2] = test system: Haemophilus influenzae QK12/87; assay: as above; settings: for MIC: read-out: minimum inhibitory concentration (MIC), Strain I
Description: as §1

[3] = test system: Haemophilus influenzae 12214; assay: as above; settings: for MIC: read-out: minimum inhibitory concentration (MIC), Strain K
Description: as §1

[4] = test system: Haemophilus influenzae B1501; assay: as above; settings: for MIC: read-out: minimum inhibitory concentration (MIC), Strain M
Description: as §1

[5] = test system: Streptococcus pneumoniae SL199T; assay: MIC, standard microdilution technique; settings: for MIC: read-out: minimum inhibitory concentration (MIC), Strain G
Description: (§2) The antibacterial activities of the compounds have been determined by standard microdilution technique (National Committee for Clinical Laboratory Standards. 2000. Methods for Dilution Antimicrobial Susceptibility Tests for Bacteria that Grow Aerobically, 5th edition. Approved standard M7-A5. National Committee for Clinical Laboratory Standards, Wayne, Pa.).

[6] = test system: Staphylococcus aureus ATCC 29213; assay: MIC, standard microdilution technique; settings: for MIC: ATCC29213, read-out: minimum inhibitory concentration (MIC), Strain A
Description: as §2

[7] = test system: Streptococcus pneumoniae l/l; assay: MIC, standard microdilution technique; settings: for MIC: read-out: minimum inhibitory concentration (MIC), Strain E
Description: as §2

[8] = test system: Streptococcus pneumoniae 12288; assay: MIC, standard microdilution technique; settings: for MIC: read-out: minimum inhibitory concentration (MIC), Strain H
Description: as §2

[9] = test system: Staphylococcus aureus 745; assay: MIC, standard microdilution technique; settings: for MIC: read-out: minimum inhibitory concentration (MIC), Strain C
Description: as §2

[10] = test system: Escherichia coli ATCC 25922; assay: MIC, standard microdilution technique; settings: for MIC: ATCC25922, read-out: minimum inhibitory concentration (MIC), Strain D
Description: as §2

[11] = test system: Streptococcus pneumoniae ¼; assay: MIC, standard microdilution technique; settings: for MIC: read-out: minimum inhibitory concentration (MIC), Strain F
Description: as §2

[12] = test system: Staphylococcus aureus 1086; assay: MIC, standard microdilution technique; settings: for MIC: read-out: minimum inhibitory concentration (MIC), Strain B
Description: as §2

| Structure (SMILES) | minimum inhibitory concentration (MIC), Strain L [1] [µg/mL] | minimum inhibitory concentration (MIC), Strain I [2] [µg/mL] | minimum inhibitory concentration (MIC), Strain K [3] [µg/mL] | minimum inhibitory concentration (MIC), Strain M [4] [µg/mL] | minimum inhibitory concentration (MIC), Strain G [5] | minimum inhibitory concentration (MIC), Strain A [6] | minimum inhibitory concentration (MIC), Strain E [7] | minimum inhibitory concentration (MIC), Strain H [8] [µg/mL] | minimum inhibitory concentration (MIC), Strain C [9] [µg/mL] | minimum inhibitory concentration (MIC), Strain D [10] [µg/mL] | minimum inhibitory concentration (MIC), Strain F [11] | minimum inhibitory concentration (MIC), Strain B [12] | other results |
| --- | --- | --- | --- | --- | --- | --- | --- | --- | --- | --- | --- | --- | --- |
| CC[C@H]1OC(=O)[C@H](C)C(=O)[C@H](C)[C@@H](O[C@@H]2O[C@H](C)C[C@H](N(C)C)[C@H]2O)[C@](C)(OC)C[C@@H](C)C(=O)[C@H](C)[C@H]2[C@@H](SCCNC(=O)c3ccc4ncccc4c3)C(=O)O[C@@]21C (single isomer, unassigned) [Example 47] | 4 (≈ 4.75 µM) | 4 (≈ 4.75 µM) | 8 (≈ 9.5 µM) | 2 (≈ 2.38 µM) | 8 µg/mL (≈ 9.5 µM) | 0.125 µg/mL (≈ 0.148 µM) | <=0.06 μg/ml | >32 | >32 | >32 | <=0.06 μg/ml | <=0.06 μg/ml | – |
| CC[C@H]1OC(=O)[C@H](C)C(=O)[C@H](C)[C@@H](O[C@@H]2O[C@H](C)C[C@H](N(C)C)[C@H]2O)[C@](C)(OC)C[C@@H](C)C(=O)[C@H](C)[C@H]2[C@@H](SCCNC(=O)c3ccc(-n4ccnc4)nc3)C(=O)O[C@@]21C (single isomer, unassigned) [Example 48] | 16 (≈ 18.6 µM) | 16 (≈ 18.6 µM) | 32 (≈ 37.3 µM) | 16 (≈ 18.6 µM) | >32 µg/mL | 0.25 µg/mL (≈ 0.291 µM) | <=0.06 μg/ml | >32 | >32 | >32 | >32 µg/mL | 0.25 µg/mL (≈ 0.291 µM) | – |
| CC[C@H]1OC(=O)[C@H](C)C(=O)[C@H](C)[C@@H](O[C@@H]2O[C@H](C)C[C@H](N(C)C)[C@H]2O)[C@](C)(OC)C[C@@H](C)C(=O)[C@H](C)[C@H]2[C@@H](SCCNC(=O)c3cccc4cccnc34)C(=O)O[C@@]21C (single isomer, unassigned) [Example 49] | 4 (≈ 4.75 µM) | 4 (≈ 4.75 µM) | 16 (≈ 19 µM) | 4 (≈ 4.75 µM) | 2 µg/mL (≈ 2.38 µM) | <=0.06 μg/ml | <=0.06 μg/ml | 16 (≈ 19 µM) | >32 | >32 | <=0.06 μg/ml | <=0.06 μg/ml | – |
| CC[C@H]1OC(=O)[C@H](C)C(=O)[C@H](C)[C@@H](O[C@@H]2O[C@H](C)C[C@H](N(C)C)[C@H]2O)[C@](C)(OC)C[C@@H](C)C(=O)[C@H](C)[C@H]2[C@@H](SCCNC(=O)c3ccc(-n4cccn4)nc3)C(=O)O[C@@]21C (single isomer, unassigned) [Example 50] | 8 (≈ 9.32 µM) | 8 (≈ 9.32 µM) | 16 (≈ 18.6 µM) | 4 (≈ 4.66 µM) | 32 µg/mL (≈ 37.3 µM) | 0.25 µg/mL (≈ 0.291 µM) | <=0.06 μg/ml | >32 | >32 | >32 | 32 µg/mL (≈ 37.3 µM) | 0.125 µg/mL (≈ 0.146 µM) | – |
| CC[C@H]1OC(=O)[C@H](C)C(=O)[C@H](C)[C@@H](O[C@@H]2O[C@H](C)C[C@H](N(C)C)[C@H]2O)[C@](C)(OC)C[C@@H](C)C(=O)[C@H](C)[C@H]2[C@@H](SCC(=O)Nc3ccccc3-c3ccccc3OC)C(=O)O[C@@]21C (single isomer, unassigned) [Example 53] | 8 (≈ 9.06 µM) | 8 (≈ 9.06 µM) | 16 (≈ 18.1 µM) | 16 (≈ 18.1 µM) | 16 µg/mL (≈ 18.1 µM) | 0.5 µg/mL (≈ 0.566 µM) | <=0.06 μg/ml | >32 | >32 | >32 | 1 µg/mL (≈ 1.13 µM) | 0.25 µg/mL (≈ 0.283 µM) | – |
| CC[C@H]1OC(=O)[C@@](C)(F)C(=O)[C@H](C)[C@@H](O[C@@H]2O[C@H](C)C[C@H](N(C)C)[C@H]2O)[C@](C)(OC)C[C@@H](C)C(=O)[C@H](C)[C@H]2[C@@H](SCCn3cnc4c(N)ncnc43)C(=O)O[C@@]21C (single isomer, unassigned) [Example 56] | 0.5 (≈ 0.608 µM) | 1 (≈ 1.22 µM) | 1 (≈ 1.22 µM) | 0.5 (≈ 0.608 µM) | <=0.06 μg/ml | <=0.06 μg/ml | <=0.06 μg/ml | 1 (≈ 1.22 µM) | >32 | 32 (≈ 38.9 µM) | <=0.06 μg/ml | <=0.06 μg/ml | – |
| CC[C@H]1OC(=O)[C@@](C)(F)C(=O)[C@H](C)[C@@H](O[C@@H]2O[C@H](C)C[C@H](N(C)C)[C@H]2O)[C@](C)(OC)C[C@@H](C)C(=O)[C@H](C)[C@H]2[C@@H]([S+]([O-])CCCn3cnc4c(N)ncnc43)C(=O)O[C@@]21C (single isomer, unassigned) [Example 57] | 8 (≈ 9.38 µM) | 4 (≈ 4.69 µM) | 8 (≈ 9.38 µM) | 4 (≈ 4.69 µM) | 1 µg/mL (≈ 1.17 µM) | 2 µg/mL (≈ 2.34 µM) | <=0.06 μg/ml | 32 (≈ 37.5 µM) | >32 | >32 | 0.125 µg/mL (≈ 0.147 µM) | 2 µg/mL (≈ 2.34 µM) | – |
| CC[C@H]1OC(=O)[C@H](C)[C@@H](O[C@H]2C[C@@](C)(OC)[C@@H](O)[C@H](C)O2)[C@H](C)[C@@H](O[C@@H]2O[C@H](C)C[C@H](N(C)C)[C@H]2O)[C@](C)(OC)C[C@@H](C)C(=O)[C@H](C)[C@@H](O)[C@]1(C)O [Clarithromycin, reference compound] | – | – | – | – | – | – | – | – | – | – | – | – | MIC [1]: 8 µg/mL (≈ 10.7 µM); MIC [2]: 4 µg/mL (≈ 5.35 µM); MIC [3]: 4 µg/mL (≈ 5.35 µM); MIC [4]: 4 µg/mL (≈ 5.35 µM); MIC [5]: > 32 µg/mL; MIC [6]: 0.125 µg/mL (≈ 0.167 µM); MIC [7]: ≤ 0.06 µg/mL; MIC [8]: > 32 µg/mL; MIC [9]: > 32 µg/mL; MIC [10]: > 32 µg/mL; MIC [11]: 32 µg/mL (≈ 42.8 µM); MIC [12]: > 32 µg/mL |
| CC[C@H]1OC(=O)[C@H](C)[C@@H](O[C@H]2C[C@@](C)(OC)[C@@H](O)[C@H](C)O2)[C@H](C)[C@@H](O[C@@H]2O[C@H](C)C[C@H](N(C)C)[C@H]2O)[C@](C)(O)C[C@@H](C)C(=O)[C@H](C)[C@@H](O)[C@]1(C)O [Erythromycin, reference compound] | – | – | – | – | – | – | – | – | – | – | – | – | MIC [1]: 8 µg/mL (≈ 10.9 µM); MIC [2]: 4 µg/mL (≈ 5.45 µM); MIC [3]: 4 µg/mL (≈ 5.45 µM); MIC [4]: 4 µg/mL (≈ 5.45 µM); MIC [5]: > 32 µg/mL; MIC [6]: 0.25 µg/mL (≈ 0.341 µM); MIC [7]: ≤ 0.06 µg/mL; MIC [8]: > 32 µg/mL; MIC [9]: > 32 µg/mL; MIC [10]: > 32 µg/mL; MIC [11]: > 32 µg/mL; MIC [12]: > 32 µg/mL |
| CC[C@H]1OC(=O)[C@H](C)C(=O)[C@H](C)[C@@H](O[C@@H]2O[C@H](C)C[C@H](N(C)C)[C@H]2O)[C@](C)(OC)C[C@@H](C)C(=O)[C@H](C)[C@H]2[C@@H](SCC(=O)c3ccc4c(c3)CCC(=O)N4)C(=O)O[C@@]21C [Example 6] | 32 (≈ 38.5 µM) | >32 | 32 (≈ 38.5 µM) | 32 (≈ 38.5 µM) | 32 µg/mL (≈ 38.5 µM) | 1 µg/mL (≈ 1.2 µM) | <=0.06 μg/ml | >32 | >32 | >32 | >32 µg/mL | 1 µg/mL (≈ 1.2 µM) | – |
